These results are taken from publication PMC7019360, “Antihypertensive Effects of Virgin Olive Oil (Unfiltered) Low Molecular Weight Peptides with ACE Inhibitory Activity in Spontaneously Hypertensive Rats” (Nutrients, 2020).

Ends that are not written are not given here. Peptide text beside a SMILES is read from it. Where only a bound is given, the exact number is not on record here.

Chain of angiotensin-converting enzyme (ACE) (P12821 30-1306, species assumed): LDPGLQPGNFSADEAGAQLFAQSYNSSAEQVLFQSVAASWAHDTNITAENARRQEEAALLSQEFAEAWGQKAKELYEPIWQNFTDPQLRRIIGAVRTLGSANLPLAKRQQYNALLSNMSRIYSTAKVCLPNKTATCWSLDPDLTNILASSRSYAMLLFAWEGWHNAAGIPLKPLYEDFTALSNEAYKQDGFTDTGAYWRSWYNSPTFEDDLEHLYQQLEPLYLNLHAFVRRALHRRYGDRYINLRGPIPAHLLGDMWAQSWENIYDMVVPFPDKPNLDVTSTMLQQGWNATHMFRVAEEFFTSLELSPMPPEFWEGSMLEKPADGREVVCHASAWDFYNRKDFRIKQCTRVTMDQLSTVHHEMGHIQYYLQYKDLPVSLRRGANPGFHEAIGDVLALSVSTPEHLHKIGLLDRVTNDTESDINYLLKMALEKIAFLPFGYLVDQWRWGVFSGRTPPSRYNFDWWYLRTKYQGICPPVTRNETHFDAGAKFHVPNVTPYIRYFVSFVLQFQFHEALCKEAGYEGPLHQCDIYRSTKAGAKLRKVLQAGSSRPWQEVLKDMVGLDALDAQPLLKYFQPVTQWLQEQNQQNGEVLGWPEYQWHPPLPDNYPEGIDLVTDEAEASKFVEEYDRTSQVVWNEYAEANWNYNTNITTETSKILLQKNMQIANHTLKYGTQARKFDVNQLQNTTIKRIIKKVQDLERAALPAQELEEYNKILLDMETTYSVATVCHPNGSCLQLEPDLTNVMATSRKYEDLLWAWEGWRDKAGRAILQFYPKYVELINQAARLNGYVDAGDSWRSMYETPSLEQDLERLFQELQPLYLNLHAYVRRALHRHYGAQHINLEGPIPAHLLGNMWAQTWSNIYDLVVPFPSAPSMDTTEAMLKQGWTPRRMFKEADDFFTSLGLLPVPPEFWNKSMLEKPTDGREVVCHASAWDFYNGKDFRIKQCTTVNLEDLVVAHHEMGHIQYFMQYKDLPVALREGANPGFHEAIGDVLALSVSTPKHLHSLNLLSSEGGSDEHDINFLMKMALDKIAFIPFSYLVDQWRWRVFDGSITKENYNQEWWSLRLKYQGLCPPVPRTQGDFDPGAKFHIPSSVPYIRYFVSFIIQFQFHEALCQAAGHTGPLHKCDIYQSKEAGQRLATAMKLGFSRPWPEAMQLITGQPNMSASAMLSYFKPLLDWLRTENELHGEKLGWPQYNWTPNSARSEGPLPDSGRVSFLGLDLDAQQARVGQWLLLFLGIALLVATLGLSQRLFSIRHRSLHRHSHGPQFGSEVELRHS

For the first data set, the system named is ACE.
Test: not given
The conditions noted are these: bovine casein-derived peptide; cited from earlier work. The source says:
The process of development of high blood pressure in humans presents analogies with the development of hypertension in SHR. For this reason, the SHR model has been extensively used in the evaluation of food peptides with antihypertensive potential. […] It contains four dipeptides (DG, GG, GY, DG) with previously reported activity, h ...
Take KVLPVPQ: the “In vitro ACE inhibitory activity” value is “low in vitro ACE inhibitory activity”.

System in a further data set: not listed separately
Put plainly: Water solubility of synthetic peptide. It counts as physicochemical. The conditions noted are these: reason why the ACE activity was not determined.
Turning to “LQFCCY [SEQ No.17, synthetic peptide LQFCCY from olive oil extract]”, the Water solubility entry is “not water soluble”.

A further data set concerns SHR.
Test: not given
The note with it: bovine casein-derived peptide; cited from earlier work. An excerpt:
The study of ACE inhibitor peptides in foods is a very active area of research and there are a few available data bases with information on peptide sequences and biological activity. We used the BIOPEP data base to assist with our selection of peptides because it uses previous published research providing information about the number of ACE inhibitor motifs of a peptide sequence and calculates the peptide's theoretical activity. Apart from the ACE inhibitory activity, the data base detected additional potential activities of our selected peptides, including antioxidant (Nos. 9 and 11), anti-th ... || The process of development of high blood pressure in humans presents analogies with the development of hypertension in SHR. For this reason, the SHR model has been extensively used in the evaluation of food peptides with antihypertensive potential. […] It contains four dipeptides (DG, GG, GY, DG) with previously reported activity, h ...
KVLPVPQ: the “SBP reducing effect in SHR” value is recorded as “high SBP reducing effect”.

In the next data set the test system is spontaneously hypertensive rats (SHR). As to the kind of experiment: Antihypertensive activity in SHR, tail-cuff SBP after acute oral administration. Type of data set: in vivo, rat. The note with it: oral Captopril 50 mg/kg BW, at 24 h. An excerpt: The antihypertensive effect of synthetic peptides No. 1 (RDGGYCC), No. 2 (LEEFCC), No. 3 (HCGCNTH) and No. 4 (CCGNAVPQ) was studied on the systolic blood pressure (SBP) and diastolic blood pressure (DBP) using the spontaneously hypertensive rat (SHR) animal model of hypertension. The tail-cuff method was used to measure SBP and DBP [36] as described in [28]. We selected a dose of synthetic peptides in the range described in previous studies of antihypertensive effects of peptides with ACE inhibitory activity. SBP and DBP data was always collected by the same technician. A period of training of two weeks was set to allow the animals to be habituated to this methodology. Forty-eight male SHR (age 19–21 weeks) were used. The average BW of the animals was 322.0 ± 6.0 g. The synthetic peptides were dissolved in water and were administered orally to the animals (about 1 mL per animal). The ACE inhibitor drug Captopril (Sigma, St. Louis, MO, USA) was used as a positive control and water was used as a negative control. The SHR were distributed randomly into 6 study groups (n = 8 per group) and received an oral dose of one of the four synthetic peptides (25 mg/kg of BW), or a dose of Captopril (50 mg/kg of BW) or water (1 mL). SBP and DBP were measured in the rats at baseline (time 0) and at 2, 4, 8 and 24 h post-administration of the peptides or controls. […]
For the compound `C[C@H](CS)C(=O)N1CCC[C@H]1C(=O)O` [Captopril], the “Time course of the antihypertensive effect (SBP)” value is on record as “returned to basal levels”.

A further data set has as its target angiotensin-converting enzyme (ACE) (Homo sapiens, UniProt P12821). As to the kind of experiment: ACE inhibitory activity in vitro (IC50). Type of data set: biochemical. The conditions noted are these: chemically synthesised peptides, method of ref 35 with modifications of ref 28, mean ± SD, SD, read-out: ACEi Activity IC50 (µm) ± SD. An excerpt: The ACE inhibitory activity of the samples was studied using the methodology specified in [35], with some modifications. The ACE inhibitory activity is shown as IC50, or the concentration needed to inhibit the activity of the enzyme by 50%.
Consider RPVPPVF [SEQ No.15], for which the concentration for half-maximal inhibition (IC50) (as a rule, the concentration at which inhibition is half-maximal) amounted to 230 ± 36.5 µM. In the case of `C[C@@H](O)[C@H](NC(=O)[C@H](CC(N)=O)NC(=O)[C@H](CS)NC(=O)CNC(=O)[C@H](CS)NC(=O)[C@@H](N)Cc1c[nH]cn1)C(=O)N[C@@H](Cc1c[nH]cn1)C(=O)O` [SEQ No.3] (H-HCGCNTH-OH), the IC50 was found to be 2.58 ± 0.26 µM. Regarding `N=C(N)NCCC[C@H](N)C(=O)N[C@@H](CC(=O)O)C(=O)NCC(=O)NCC(=O)N[C@@H](Cc1ccc(O)cc1)C(=O)N[C@@H](CS)C(=O)N[C@@H](CS)C(=O)O` [SEQ No.1] (H-RDGGYCC-OH), the IC50 is 0.84 ± 0.02 µM. The same measure, in the same setting: the same measure for EECHAH [SEQ No.9]: 11.8 ± 1.99 µM. As to LALSAPVP [SEQ No.16], the half-inhibitory concentration (IC50) stood at 305 ± 10.9 µM.

Consider `CC(C)[C@H](NC(=O)[C@H](C)NC(=O)[C@H](CC(N)=O)NC(=O)CNC(=O)[C@H](CS)NC(=O)[C@@H](N)CS)C(=O)N1CCC[C@H]1C(=O)N[C@@H](CCC(N)=O)C(=O)O` [SEQ No.4] (H-CCGNAVPQ-OH), for which the half-maximal inhibitory concentration (IC50) was 39.6 ± 2.09 µM. The same measure, in the same setting: under YMHCYF [SEQ No.7] stands 3.2 ± 0.23 µM; under `CC(C)C[C@H](N)C(=O)N[C@@H](CCC(=O)O)C(=O)N[C@@H](CCC(=O)O)C(=O)N[C@@H](Cc1ccccc1)C(=O)N[C@@H](CS)C(=O)N[C@@H](CS)C(=O)O` [SEQ No.2] (H-LEEFCC-OH), 1.85 ± 0.16 µM. Take `CC(C)C[C@H](NC(=O)[C@@H]1CCCN1C(=O)[C@H](CC(=O)O)NC(=O)[C@H](CS)NC(=O)CNC(=O)[C@H](CS)NC(=O)CNC(=O)[C@@H](N)Cc1ccc(O)cc1)C(=O)O` [SEQ No.6] (H-YGCGCDPL-OH): the IC50 is 1.64 ± 0.02 µM. Consider LALAPTN [SEQ No.14], for which the IC50 came to 135 ± 13.5 µM. For `CC(C)C[C@H](NC(=O)[C@H](CC(=O)O)NC(=O)[C@H](CS)NC(=O)CNC(=O)[C@H](CS)NC(=O)CNC(=O)[C@@H](N)Cc1ccc(O)cc1)C(=O)N1CCC[C@H]1C(=O)O` [SEQ No.5] (H-YGCGCDLP-OH), the concentration for half-maximal inhibition (IC50) was 3.51 ± 0.21 µM. With LEFTSSY [SEQ No.12], the 50% inhibitory concentration (IC50) was determined as 107 ± 14.7 µM.

For the compound `C[C@H](NC(=O)[C@H](C)NC(=O)[C@@H](N)Cc1c[nH]c2ccccc12)C(=O)NCC(=O)N[C@@H](Cc1ccc(O)cc1)C(=O)N[C@@H](CS)C(=O)N[C@@H](CS)C(=O)O` [SEQ No.8] (H-WAAGYCC-OH), the IC50 amounted to 6.88 ± 0.3 µM.

Staying with this data set, now noted: chemically synthesised peptides, method of ref 35 with modifications of ref 28, mean ± SD, read-out: ACEi Activity IC50 (µm) ± SD.
As to YEAYPS [SEQ No.21], the IC50 is over 460 µM. As for KRRPPTT [SEQ No.18], the IC50 was over 390 µM. Still for that read-out and setting: under EAPGGYDD [SEQ No.19] stands over 405 µM. Same read-out and setting: under MSMAPY [SEQ No.23] stands over 480 µM.
